One series concerns VCP 3′UTR. Put plainly: Dual-luciferase reporter assay, VCP 3′UTR. The class given is cell-based. To be noted: following miR-198 overexpression; firefly/Renilla ratio, 24 h. An excerpt:
(§1) For MSLN, six constructs were generated: 400 or 600 bp segments containing the WT sequence or specific 3-nucleotide mutations in the seed region of each miR-198 binding site were synthesized by GenScript and subcloned into the pEZX-MT01 3′UTR construct from Genecopoeia at Xba1 and BamH1 restriction sites such that they were inserted after the luciferase gene (FIG. 10). The same process was used for the VCP reporter constructs containing the full-length VCP 3′UTR (FIG. 10).
(§2) Dual luciferase assays were performed according to the manufacturer's instruction. Luciferase expression analysis was performed at 24 h using the Dual-luciferase kit (Promega) and Sirius Luminometer (Berthold Detection System). Results are presented as the ratio of firefly to Renilla luciferase activities, normalized to controls.
(Reporter assays use an easily measured gene product as a stand-in for the process of interest.)

The next series deals with MSLN CDS. Description: Dual-luciferase reporter assay, MSLN CDS constructs. The class given is cell-based, human. To be noted: in the presence of miR-198.
Excerpt: as §1, §2

Series [1] relates to AsPC1 cells. Description: Stable miR-198 overexpression, expression of network factors. The class given is cell-based, human. The protocol:
(§3) Western blots were performed as previously described (Li et al., 2008). Membranes were probed with: anti-MSLN monoclonal antibody (1:1000) (Abcam); PBX-1 polyclonal antibody (1:1000) and Caspase 3 antibody (1:1000) (Cell Signaling); OCT-2 polyclonal antibody (1:400), and VCP polyclonal antibody (1:200) (Santa Cruz Biotechnology); or anti-β-actin, Tubulin, LaminA or GAPDH antibodies (1:10,000) (Sigma Aldrich). Secondary incubation was performed with horseradish peroxidase-linked secondary antibody (1:2,000) (anti-mouse, anti-goat or anti-rabbit) (Cell Signaling).
(§4) MSLN-overexpressing stable cells (or empty vector controls) were selected in MIA PaCa-2 cells or HPDE cells (MIA-MSLN, HPDE-MSLN) or vector (MIA-V, HPDE-V) using retrovirus vectors expressing puromycin resistance (Origene) with 0.5 μg/mL of puromycin added into the medium as previously described (Zhang et al.). Stable cells overexpressing miR-198 or vector control were generated in AsPC-1 (AsPC-1-miR-198, AsPC-1-miR-Ctrl), MIA-MSLN (MIA-MSLN-miR-198, MIA-MSLN-miR-Ctrl), MIA-V (MIA-V-miR-198, MIA-V-miR-Ctrl), and HPDE cells (HPDE-miR-198, HPDE-miR-Ctrl) using the Lenti-miR miRNA Precursor Clone Collection (SBI). The miRZip Lentivector collection from SBI was used to stably knock down miR-198 in MIA-PaCa2 (MIA-V-Zip-198, MIA-V-Zip-Ctrl) and HPDE (HPDE-Zip-198, HPDE-Zip-Ctrl) cells.
(§5) Differential expression of 95 miRNAs chosen for their potential roles in cancer, cell development, and apoptosis was analyzed by RT-PCR using the QuantiMir System from SBI System Biosciences in both MIA-V and MIA-MSLN cells. The array plate also included the U6 transcript as a normalization signal. cDNAs from different cell lines and tissue samples were mixed with SYBR® Green Mastermix (Bio-Rad Laboratories) plus the universal reverse primer. Specific primers (1 μl) were added to each well of the qPCR plate. Expression levels of each mature miRNA were evaluated using comparative threshold cycle (Ct) method as normalized to that of U6 (2—ΔCt). The expression level of miR-198 was measured in all subsequent experiments using the same method. Real-time RT PCR was performed as previously described for MSLN, ZEB1, PBX-1, and VCP (Li et al., 2008).

Series [2] relates to MIA-MSLN cells. The series is described as above. The class given is cell-based, human. To be noted: miR-198 overexpression in MIA-MSLN cells. The protocol:
as §3, §4, §5

The test system of series [3] is AsPC1 cells. Description: Cell proliferation assay (MTT). The class given is cell-based, human. To be noted: AsPC1-miR-198 cells. The protocol:
(§6) Cells were seeded in 96-well plates (2×10^3 cells per well) and serum starved for 24 h prior to differential FBS additions. 3-(4,5-Dimethylthiazol-2-yl)-2,5-diphenyltetrazolium bromide (MTT) was used to measure cell proliferation as previously described (Bharadwaj et al., 2011b).
(§7) Cell growth was assessed using MTT at 2, 3, 4, 5 and 6 days after releasing from starvation (not all data shown). Briefly, twenty microliters of MTT reagent mixed with 100 μL of growth medium was added to each well and incubated at 37° C. for 2 h. Cells were then lysed overnight using 100 μl of lysis buffer consisting of 20% SDS in 1:1 dimethyl formamide; H2O solution. Absorbance was recorded at 520 nm with an EL-800 universal microplate reader (Bio-Tek Instruments). Relative proliferation was calculated by dividing the reading by a Day 0 reading taken prior to serum starvation.

The test system of series [4] is MIA-MSLN cells. Put plainly: Cell proliferation assay (MTT). The class given is cell-based, human. To be noted: MIA-MSLN-miR-198 cells, after 5 days. The protocol: as §6, §7
Series [5] deals with MIA-MSLN cells. Put plainly: Subcutaneous pancreatic cancer mouse model. The class given is in vivo, nude mice. The protocol:
All animal procedures were conducted under the guidelines approved by the Institutional Animal Care and Use Committee (IACUC). Cells (3×10^6) were inoculated into the right flank (s.c. model) or into the pancreas (orthotopic model) of 5 to 6-week-old male nude mice (NCI-Charles River) as previously described (Li et al., 2007). Tumor size was measured using a digital caliper and tumor volume was determined with the following formula: tumor volume (mm^3)=[length (mm)]×[width (mm)]2×0.52. For the orthotopic model, after 4 weeks all surviving mice were euthanized and evaluated macroscopically for the presence of orthotopic tumor and metastases in the abdominal cavity. Tumor spread was further visualized using a fluorescent filter to view GFP expression. The tumor nodules were explanted, counted, and weighed. Tumor tissues were stored in RNAse Later solution (Ambion) in −80° for subsequent RNA/miRNA isolation and analysis.

For series [6], the system named is AsPC1 cells. Put plainly: Monolayer wound healing assay. The class given is cell-based, human. To be noted: miR-198 overexpressed, all serum conditions tested. An excerpt:
(§8) For wound healing assay, wounds were created in confluent monolayer of cells with a sterile pipette tip in either 0%, 0.2%, 2%, or 5% FBS media, and wound healing was observed within the scrape line at different time points; representative fields for each cell line were photographed (Li et al., 2008, Bharadwaj).

Series [7] concerns MIA-MSLN cells. Put plainly: Monolayer wound healing assay. The class given is cell-based, human. To be noted: miR-198 overexpressed, all serum conditions tested.
Excerpt: as §8

Values joined by “and” are separate entries in the source; they are usually repeats but may differ in a detail not shown here. Equal values may be shown once.

For the substance “miR-198: microRNA-198, SEQ ID NO: 1 gguccagaggggagauagg; used as transfected precursors (Ambion) or Lenti-miR stable overexpression (GGUCCAGAGGGGAGAUAGG; listed as RNA, chemistry not given here; listed as Homo sapiens)”, the “decrease in VCP 3′UTR luciferase activity” value with VCP 3′UTR is given as about 70%. In addition, in the series with MSLN CDS, the “decrease in firefly luciferase expression, MSLN CDS site 2 WT construct” value is reported as “almost completely” and the “decrease in firefly luciferase expression, MSLN CDS site 3 WT construct” value is given as about 70%. For the same substance, the “decrease in firefly luciferase expression, MSLN CDS site 1 construct” value in the series with MSLN CDS (not statistically significant) is on record as “slight reduction”. In addition, in the series on AsPC1 cells [1] (ASPC1 cells following miR-198 overexpression, FIG. 10J), the “VCP mRNA levels downregulated” value was about 5 fold. In addition, in the series with AsPC1 cells [1] (AsPC1 cells following miR-198 overexpression, FIG. 3E), the VCP expression downregulated is given as about 50 fold. In addition, in the series on AsPC1 cells [1] (miR-198 overexpression in AsPC1 cells), the “PBX-1 mRNA and protein expression” value was “almost undetectable”. Further, in the series with MIA-MSLN cells [2], the “MSLN expression at the protein level” value was “almost complete reduction of MSLN expression”; the “MSLN mRNA expression levels” value is on record as “partial decrease”; the “PBX-1 mRNA and protein expression” value is reported as “almost undetectable”. Further, the “VCP mRNA levels” value with MIA-MSLN cells [2] (FIG. 10I) was “reduces VCP down to MIA-V cell levels”. Also, in the series with AsPC1 cells [3], the “proliferation rates vs AsPC1-miR-Ctrl cells” value is on record as “significantly lower proliferation rates”. The “lower proliferation rates than MIA-MSLN and MIA-MSLN-miR-Ctrl cells” value in the series on MIA-MSLN cells [4] is on record as “approximately 3 fold”. Further, the “mice that developed tumors” value in the series on MIA-MSLN cells [5] (s.c. MIA-MSLN-miR-198 cells) is listed as 3 of 9. In addition, in the series with MIA-MSLN cells [5] (s.c. MIA-MSLN-miR-198 cells, day 45 post injection, the three mice with tumors), the average tumor volume was 37 mm^3 and 36 mm^3. In the series with MIA-MSLN cells [5] (s.c. miR-198 overexpressing cells, tumor-free for 45 days), the “mice with no signs of tumor development” value is listed as 6/9. In addition, the first measurable tumors in the series with MIA-MSLN cells [5] (s.c., the three mice that presented small tumors) was 35 day post injection. In the series on AsPC1 cells [6], the wound closure rate result was “reduced wound closure rate”. In addition, the wound closure rate result in the series on MIA-MSLN cells [7] is “reduced wound closure rate”.

Values taken from patent US12134769B2, “MicroRNA-198 as a tumor suppressor in ovarian cancer” (Baylor College of Medicine, priority 2011, dated 2024).
